Results as given in PubChem BioAssay (NCI).
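Values below derive from 48-hour exposures of cells grown in 96-well plates, with endpoints linearly interpolated between the two concentrations bracketing the appropriate inhibition level. Abbreviation: GI50, concentration required for 50% inhibition of growth. TGI is the concentration that stops growth completely.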

Legend:
Assay in all cases: inhibition of tumour cell growth, NCI panel, 48 h
786-0 renal = system: 786-0 renal
A498 renal = system: A498 renal
A549 NSCLC = system: A549 NSCLC
ACHN renal = system: ACHN renal
BT-549 breast = system: BT-549 breast
CAKI-1 renal = system: CAKI-1 renal
CCRF-CEM leukemia = system: CCRF-CEM leukemia
COLO 205 colon = system: COLO 205 colon
DU-145 prostate = system: DU-145 prostate
EKVX NSCLC = system: EKVX NSCLC
HCC-2998 colon = system: HCC-2998 colon
HCT-116 colon = system: HCT-116 colon
HCT-15 colon = system: HCT-15 colon
HL-60(TB) leukemia = system: HL-60(TB) leukemia
HOP-62 NSCLC = system: HOP-62 NSCLC
HS 578T breast = system: HS 578T breast
HT29 colon = system: HT29 colon
IGROV1 ovarian = system: IGROV1 ovarian
K-562 leukemia = system: K-562 leukemia
KM12 colon = system: KM12 colon
LOX IMVI melanoma = system: LOX IMVI melanoma
M14 melanoma = system: M14 melanoma
MALME-3M melanoma = system: MALME-3M melanoma
MCF7 breast = system: MCF7 breast
MDA-MB-231 breast = system: MDA-MB-231 breast
MDA-MB-435 = system: MDA-MB-435
MOLT-4 leukemia = system: MOLT-4 leukemia
NCI-H226 lung = system: NCI-H226 lung
NCI-H23 lung = system: NCI-H23 lung
NCI-H460 lung = system: NCI-H460 lung
NCI-H522 lung = system: NCI-H522 lung
NCI/ADR-RES ovarian = system: NCI/ADR-RES ovarian
OVCAR-4 ovarian = system: OVCAR-4 ovarian
OVCAR-5 ovarian = system: OVCAR-5 ovarian
OVCAR-8 ovarian = system: OVCAR-8 ovarian
PC-3 prostate = system: PC-3 prostate
RPMI-8226 leukemia = system: RPMI-8226 leukemia
RXF 393 renal = system: RXF 393 renal
SF-268 CNS = system: SF-268 CNS
SF-295 CNS = system: SF-295 CNS
SF-539 CNS = system: SF-539 CNS
SK-MEL-2 melanoma = system: SK-MEL-2 melanoma
SK-MEL-28 melanoma = system: SK-MEL-28 melanoma
SK-MEL-5 melanoma = system: SK-MEL-5 melanoma
SK-OV-3 ovarian = system: SK-OV-3 ovarian
SN12C renal = system: SN12C renal
SNB-19 CNS = system: SNB-19 CNS
SNB-75 CNS = system: SNB-75 CNS
SR leukemia = system: SR leukemia
SW-620 colon = system: SW-620 colon
T-47D breast = system: T-47D breast
TK-10 renal = system: TK-10 renal
U251 CNS = system: U251 CNS
UACC-257 melanoma = system: UACC-257 melanoma
UACC-62 melanoma = system: UACC-62 melanoma
UO-31 renal = system: UO-31 renal

Nc1ncc(-c2ccc3ncnc(N4CCc5cc(F)c(F)cc54)c3c2)cn1 showed a GI50 (786-0 renal) of 3.42 µM, a TGI (786-0 renal) of over 100 µM and a GI50 (A498 renal) of 0.251 µM. It also gave a TGI (A498 renal) of 2.13 µM, a GI50 (A549 NSCLC) of 2.35 µM and a TGI (A549 NSCLC) of over 100 µM. It also gave a GI50 (ACHN renal) of 1.73 µM, a TGI (ACHN renal) of over 100 µM and a GI50 (BT-549 breast) of 1.86 µM. For the same compound, the TGI (BT-549 breast) was over 100 µM, the GI50 (CAKI-1 renal) was 0.89 µM and the TGI (CAKI-1 renal) was over 100 µM. The GI50 (CCRF-CEM leukemia) was 2.38 µM, the TGI (CCRF-CEM leukemia) was over 100 µM and the GI50 (COLO 205 colon) was 5.77 µM. It also gave a TGI (COLO 205 colon) of over 100 µM, a GI50 (DU-145 prostate) of 2.38 µM and a TGI (DU-145 prostate) of over 100 µM. It also gave a GI50 (EKVX NSCLC) of 1.7 µM, a TGI (EKVX NSCLC) of over 100 µM and a GI50 (HCC-2998 colon) of 3.08 µM. For the same compound, the TGI (HCC-2998 colon) was over 100 µM, the GI50 (HCT-116 colon) was 4.51 µM and the TGI (HCT-116 colon) was over 100 µM. It also gave a GI50 (HCT-15 colon) of 2.28 µM, a TGI (HCT-15 colon) of over 100 µM and a GI50 (HL-60(TB) leukemia) of 5.52 µM. For the same compound, the TGI (HL-60(TB) leukemia) was over 100 µM, the GI50 (HOP-62 NSCLC) was 1.36 µM and the TGI (HOP-62 NSCLC) was over 100 µM. It also gave a GI50 (HS 578T breast) of 0.751 µM, a TGI (HS 578T breast) of 4.66 µM and a GI50 (HT29 colon) of 2.9 µM. It also gave a TGI (HT29 colon) of over 100 µM, a GI50 (IGROV1 ovarian) of 0.459 µM and a TGI (IGROV1 ovarian) of 3.34 µM. The GI50 (K-562 leukemia) was over 100 µM, the TGI (K-562 leukemia) was over 100 µM and the GI50 (KM12 colon) was 3.92 µM. It also gave a TGI (KM12 colon) of over 100 µM, a GI50 (LOX IMVI melanoma) of 1.77 µM and a TGI (LOX IMVI melanoma) of 14.1 µM. It also gave a GI50 (M14 melanoma) of 3.53 µM, a TGI (M14 melanoma) of over 100 µM and a GI50 (MALME-3M melanoma) of 1.08 µM. The TGI (MALME-3M melanoma) was over 100 µM, the GI50 (MCF7 breast) was 1.23 µM and the TGI (MCF7 breast) was over 100 µM. For the same compound, the GI50 (MDA-MB-231 breast) was 1.87 µM, the TGI (MDA-MB-231 breast) was over 100 µM and the GI50 (MDA-MB-435) was 2.73 µM. For the same compound, the TGI (MDA-MB-435) was over 100 µM, the GI50 (MOLT-4 leukemia) was 3.32 µM and the TGI (MOLT-4 leukemia) was over 100 µM. The GI50 (NCI-H226 lung) was 3 µM, the TGI (NCI-H226 lung) was over 100 µM and the GI50 (NCI-H23 lung) was 4.76 µM. For the same compound, the TGI (NCI-H23 lung) was over 100 µM, the GI50 (NCI-H460 lung) was 2.11 µM and the TGI (NCI-H460 lung) was over 100 µM. It also gave a GI50 (NCI-H522 lung) of 4.94 µM, a TGI (NCI-H522 lung) of over 100 µM and a GI50 (NCI/ADR-RES ovarian) of 3.91 µM. For the same compound, the TGI (NCI/ADR-RES ovarian) was over 100 µM, the GI50 (OVCAR-4 ovarian) was 1.76 µM and the TGI (OVCAR-4 ovarian) was over 100 µM. For the same compound, the GI50 (OVCAR-5 ovarian) was 1.53 µM, the TGI (OVCAR-5 ovarian) was over 100 µM and the GI50 (OVCAR-8 ovarian) was 3.06 µM. The TGI (OVCAR-8 ovarian) was over 100 µM, the GI50 (PC-3 prostate) was 1.44 µM and the TGI (PC-3 prostate) was over 100 µM. The GI50 (RPMI-8226 leukemia) was 0.559 µM, the TGI (RPMI-8226 leukemia) was over 100 µM and the GI50 (RXF 393 renal) was 0.381 µM. For the same compound, the TGI (RXF 393 renal) was 3.15 µM, the GI50 (SF-268 CNS) was 1.8 µM and the TGI (SF-268 CNS) was over 100 µM. The GI50 (SF-295 CNS) was 2.3 µM, the TGI (SF-295 CNS) was over 100 µM and the GI50 (SF-539 CNS) was 2.49 µM. It also gave a TGI (SF-539 CNS) of over 100 µM, a GI50 (SK-MEL-2 melanoma) of 2.44 µM and a TGI (SK-MEL-2 melanoma) of 12.3 µM. The GI50 (SK-MEL-28 melanoma) was 3.26 µM, the TGI (SK-MEL-28 melanoma) was over 100 µM and the GI50 (SK-MEL-5 melanoma) was 6.1 µM. For the same compound, the TGI (SK-MEL-5 melanoma) was over 100 µM, the GI50 (SK-OV-3 ovarian) was 1.66 µM and the TGI (SK-OV-3 ovarian) was over 100 µM. It also gave a GI50 (SN12C renal) of 2.11 µM, a TGI (SN12C renal) of over 100 µM and a GI50 (SNB-19 CNS) of 5.35 µM. It also gave a TGI (SNB-19 CNS) of over 100 µM, a GI50 (SNB-75 CNS) of 0.455 µM and a TGI (SNB-75 CNS) of 4.03 µM. For the same compound, the GI50 (SR leukemia) was 1.82 µM, the TGI (SR leukemia) was over 100 µM and the GI50 (SW-620 colon) was 6.86 µM. For the same compound, the TGI (SW-620 colon) was over 100 µM, the GI50 (T-47D breast) was 0.858 µM and the TGI (T-47D breast) was over 100 µM. For the same compound, the GI50 (TK-10 renal) was 0.709 µM, the TGI (TK-10 renal) was over 100 µM and the GI50 (U251 CNS) was 4.81 µM. For the same compound, the TGI (U251 CNS) was over 100 µM, the GI50 (UACC-257 melanoma) was 7.3 µM and the TGI (UACC-257 melanoma) was over 100 µM. It also gave a GI50 (UACC-62 melanoma) of 1.37 µM, a TGI (UACC-62 melanoma) of over 100 µM and a GI50 (UO-31 renal) of 0.396 µM. The TGI (UO-31 renal) was over 100 µM.
